In the NIST ThermoML archive (doi:10.1021/je700438d):

Assay: mn = molality of the nth substance listed, in mol/kg
Settings: Liquid, Vibrating tube method

[Cl-].[Li+] [lithium chloride] + CCO
Settings	mass density [kg/m3]
298.15 K, 120 kPa, m1 = 2.88	865.97
298.15 K, 180 kPa, m1 = 0.3023	795.82
298.15 K, 210 kPa, m1 = 0.1049	789.29
298.15 K, 210 kPa, m1 = 1.222	823.5
298.15 K, 250 kPa, m1 = 0.5873	804.88
298.15 K, 410 kPa, m1 = 2.022	845.2
298.15 K, 5040 kPa, m1 = 0.3023	799.96
298.15 K, 5040 kPa, m1 = 2.88	869.78
298.15 K, 5120 kPa, m1 = 0.1049	793.51
298.15 K, 5230 kPa, m1 = 2.022	849.07
298.15 K, 5470 kPa, m1 = 1.222	827.84
298.15 K, 5520 kPa, m1 = 0.5873	809.31
298.15 K, 9820 kPa, m1 = 1.222	831.28
298.15 K, 10030 kPa, m1 = 0.1049	797.57
298.15 K, 10050 kPa, m1 = 2.022	852.76
298.15 K, 10240 kPa, m1 = 0.3023	804.22
298.15 K, 10320 kPa, m1 = 2.88	873.67
298.15 K, 10440 kPa, m1 = 0.5873	813.28
298.15 K, 14990 kPa, m1 = 1.222	835.2
298.15 K, 15030 kPa, m1 = 2.022	856.4
298.15 K, 15170 kPa, m1 = 0.5873	816.95
298.15 K, 15240 kPa, m1 = 0.1049	801.71
298.15 K, 15620 kPa, m1 = 0.3023	808.44
298.15 K, 15640 kPa, m1 = 2.88	877.37
298.15 K, 19040 kPa, m1 = 1.222	838.14
298.15 K, 19250 kPa, m1 = 0.5873	819.98
298.15 K, 20050 kPa, m1 = 0.3023	811.77
298.15 K, 20060 kPa, m1 = 0.1049	805.39
298.15 K, 20120 kPa, m1 = 2.022	859.94
298.15 K, 20610 kPa, m1 = 2.88	880.65
298.15 K, 25080 kPa, m1 = 2.88	883.43
298.15 K, 25410 kPa, m1 = 0.1049	809.29
298.15 K, 25460 kPa, m1 = 1.222	842.57
298.15 K, 25610 kPa, m1 = 2.022	863.54
298.15 K, 25640 kPa, m1 = 0.5873	824.52
298.15 K, 25840 kPa, m1 = 0.3023	815.92
298.15 K, 30060 kPa, m1 = 0.1049	812.53
298.15 K, 30080 kPa, m1 = 2.022	866.32
298.15 K, 30110 kPa, m1 = 0.5873	827.53
298.15 K, 30190 kPa, m1 = 1.222	845.65
298.15 K, 30410 kPa, m1 = 2.88	886.56
298.15 K, 30560 kPa, m1 = 0.3023	819.15
298.15 K, 35090 kPa, m1 = 2.88	889.13
298.15 K, 35410 kPa, m1 = 2.022	869.43
298.15 K, 35560 kPa, m1 = 0.5873	831.01
298.15 K, 35710 kPa, m1 = 0.1049	816.28
298.15 K, 35840 kPa, m1 = 0.3023	822.58
298.15 K, 35870 kPa, m1 = 1.222	849.13
298.15 K, 39820 kPa, m1 = 0.5873	833.6
298.15 K, 39910 kPa, m1 = 0.3023	825.1
298.15 K, 39940 kPa, m1 = 2.022	871.92
298.15 K, 39980 kPa, m1 = 0.1049	818.97
298.15 K, 39980 kPa, m1 = 2.88	891.64
298.15 K, 40070 kPa, m1 = 1.222	851.57
323.15 K, 120 kPa, m1 = 0.1049	767.47
323.15 K, 140 kPa, m1 = 0.3023	774.35
323.15 K, 180 kPa, m1 = 2.88	845.88
323.15 K, 230 kPa, m1 = 2.022	824.57
323.15 K, 240 kPa, m1 = 0.5873	783.81
323.15 K, 410 kPa, m1 = 1.222	802.86
323.15 K, 5030 kPa, m1 = 0.5873	788.42
323.15 K, 5070 kPa, m1 = 1.222	807.19
323.15 K, 5140 kPa, m1 = 0.1049	772.47
323.15 K, 5210 kPa, m1 = 0.3023	779.31
323.15 K, 5410 kPa, m1 = 2.022	829.25
323.15 K, 5410 kPa, m1 = 2.88	850.34
323.15 K, 10020 kPa, m1 = 0.1049	777.11
323.15 K, 10050 kPa, m1 = 0.5873	793.02
323.15 K, 10080 kPa, m1 = 2.022	833.25
323.15 K, 10080 kPa, m1 = 2.88	854.11
323.15 K, 10200 kPa, m1 = 1.222	811.76
323.15 K, 10230 kPa, m1 = 0.3023	784
323.15 K, 15060 kPa, m1 = 0.3023	788.31
323.15 K, 15230 kPa, m1 = 2.022	837.42
323.15 K, 15240 kPa, m1 = 2.88	858.04
323.15 K, 15290 kPa, m1 = 1.222	816.02
323.15 K, 15320 kPa, m1 = 0.1049	781.93
323.15 K, 15620 kPa, m1 = 0.5873	797.87
323.15 K, 20040 kPa, m1 = 0.1049	786.01
323.15 K, 20060 kPa, m1 = 2.88	861.48
323.15 K, 20150 kPa, m1 = 1.222	819.88
323.15 K, 20410 kPa, m1 = 2.022	841.36
323.15 K, 20450 kPa, m1 = 0.3023	792.88
323.15 K, 20470 kPa, m1 = 0.5873	801.87
323.15 K, 25040 kPa, m1 = 0.3023	796.57
323.15 K, 25060 kPa, m1 = 0.1049	790.15
323.15 K, 25060 kPa, m1 = 1.222	823.57
323.15 K, 25140 kPa, m1 = 0.5873	805.52
323.15 K, 25300 kPa, m1 = 2.88	864.98
323.15 K, 25310 kPa, m1 = 2.022	844.84
323.15 K, 30010 kPa, m1 = 2.022	847.97
323.15 K, 30060 kPa, m1 = 0.3023	800.4
323.15 K, 30060 kPa, m1 = 0.5873	809.15
323.15 K, 30070 kPa, m1 = 2.88	867.94
323.15 K, 30150 kPa, m1 = 0.1049	794.13
323.15 K, 30420 kPa, m1 = 1.222	827.32
323.15 K, 35020 kPa, m1 = 0.3023	803.97
323.15 K, 35210 kPa, m1 = 2.88	870.9
323.15 K, 35220 kPa, m1 = 0.5873	812.74
323.15 K, 35410 kPa, m1 = 1.222	830.59
323.15 K, 35420 kPa, m1 = 2.022	851.3
323.15 K, 35610 kPa, m1 = 0.1049	798.15
323.15 K, 39860 kPa, m1 = 2.88	873.36
323.15 K, 39940 kPa, m1 = 0.1049	801.15
323.15 K, 39960 kPa, m1 = 1.222	833.36
323.15 K, 39970 kPa, m1 = 0.5873	815.82
323.15 K, 39970 kPa, m1 = 2.022	853.89
323.15 K, 39980 kPa, m1 = 0.3023	807.32
348.15 K, 140 kPa, m1 = 0.1049	743.86
348.15 K, 150 kPa, m1 = 2.022	803.25
348.15 K, 170 kPa, m1 = 0.3023	751.06
348.15 K, 420 kPa, m1 = 1.222	780.84
348.15 K, 540 kPa, m1 = 2.88	825.55
348.15 K, 740 kPa, m1 = 0.5873	761.48
348.15 K, 4960 kPa, m1 = 2.022	808.25
348.15 K, 5060 kPa, m1 = 0.3023	756.68
348.15 K, 5060 kPa, m1 = 0.5873	766.32
348.15 K, 5060 kPa, m1 = 1.222	785.85
348.15 K, 5080 kPa, m1 = 0.1049	749.63
348.15 K, 5140 kPa, m1 = 2.88	829.96
348.15 K, 10030 kPa, m1 = 2.022	813.19
348.15 K, 10060 kPa, m1 = 0.1049	755.18
348.15 K, 10070 kPa, m1 = 0.3023	762.15
348.15 K, 10080 kPa, m1 = 2.88	834.46
348.15 K, 10210 kPa, m1 = 1.222	791.09
348.15 K, 10530 kPa, m1 = 0.5873	772.13
348.15 K, 14960 kPa, m1 = 2.022	817.67
348.15 K, 15060 kPa, m1 = 2.88	838.73
348.15 K, 15120 kPa, m1 = 0.3023	767.36
348.15 K, 15280 kPa, m1 = 1.222	795.92
348.15 K, 15290 kPa, m1 = 0.5873	776.89
348.15 K, 15410 kPa, m1 = 0.1049	760.81
348.15 K, 20030 kPa, m1 = 2.022	821.94
348.15 K, 20060 kPa, m1 = 0.1049	765.44
348.15 K, 20070 kPa, m1 = 2.88	842.77
